In brackets after ≈: the same amount, converted by molar mass.
How the values were obtained:
wild type HBV = test: Inhibition effects on wild type HBV (Real-time PCR of HBV DNA, Huh-7.5 cells); format: cell-based; conditions: 36 h; lamivudine 0.16n/mL, compound 6b 37 μg/mL
Description: (§1) Lamivudine-resistant strain (LRS M204V L180M) was used to transfect Huh-7.5 cells, lamivudine was used as positive control, lamivudine (0.16n/mL) and compound 6b (37 μg/mL) were separately used to treat wild type and LRS type HBV, after 36 h, Real-time PCR was used to determine HBV DNA levels, respectively, and the results were shown in FIG. 12.

[1] = test system: Lamivudine-resistant strain (LRS M204V L180M) HBV; test: Inhibition effects on drug resistant type HBV (Real-time PCR of HBV DNA, Huh-7.5 cells); format: cell-based; conditions: 36 h; lamivudine 0.16n/mL, compound 6b 37 μg/mL
Description: as §1

[2] = Acute toxicity of compound in mice; format: in vivo
Description: Kunming mice (purchased from Institute of Animal, Chinese Academy of Medical Sciences), 18-20 g, were weighed and randomly divided in groups, 10 mice per group, half male and half female, intraperitoneally injected with DM122 solution, in concentration of 0, 250 mg/kg, 500 mg/kg and 1000 mg/kg once. The death of animals was observed. On the 7th day, the animals were weighed, blood samples were taken and functional indexes (GOT, GPT, BUN and CRE) of liver and kidney in blood were determined.
Since Compound 6b had relatively high activity on anti-HBV and anti-HCV. The inventors had used it as a candidate of anti-hepatitis drug to evaluate its safety in animal body. Kunming mice were used for test of safety and acute toxicity of Compound 6b (13-methoxy matrine), via oral administration, administration doses were separately 250, 500 and 750 mg/kg once, then the mice were strictly monitored for 7 days.

Hsc70 [3] = test: Detection of Hsc70 gene expression level upon action of compound on 2.2.15 cells (real-time fluorescent quantified PCR); format: cell-based; design: Hsc70 mRNA / Hsc70 down-regulation rate (%): unit not given here; conditions: 2.2.15 cells
Summary of the method: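 2.2.15 cells grown 24 hr in 10% FCS medium, then exposed to compounds (20 mg/ml MEM stock diluted in medium) for 12, 24 or 36 hr; 400 μg/ml OMTR as control. Hsc70 mRNA and HBV DNA changes measured by real-time fluorescent quantitative PCR.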

HCV = test: Inhibition effects of compounds on HCV in Huh7.5 cultured cell after HCV infection; format: cell-based
Summary of the method: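 Huh7.5 cells, cultured 24 h, were infected with HCV at 45 IU/cell and given drug in medium for 72 h at 37° C. Intracellular HCV and GAPDH RNA quantified by one-step qRT-PCR, with inhibition analysed against virus control; three repeats.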

Hsc70 [4] = test: Hsc70 protein in virus particles in supernatant from HCV-infected Huh7.5 cultured cell liquid; format: cell-based; conditions: HCV-infected Huh7.5 cells, 96 h, Western blotting (FIG. 8)
Description: Huh7.5 cells were inoculated in an amount of 3×10^4/cm^2, cultured in 10 cm culture dish (58.1 cm^2/well) for 6 h, infected with HCV and simultaneously added with DM-122 drug solutions with different concentration and positive control Intron A, after action for 96 h, the supernatant from cultured cell liquid was subjected to ultra-high speed centrifugation to separate virus particles, Western blotting was used to analyze the contents of Hsc70 and GAPDH proteins in virus particles.

Hsc70 [5] = test: Inhibition effects of compound on Hsc70 in Huh7.5 cultured cell (qRT-PCR, Western blotting); format: cell-based; design: key to Hsc70 down-regulation rate (%): “—” represents no significant inhibition rate
Description: 2×10^5/ml Huh7.5 cells (purchased from Vertex Pharmaceutical Co., USA) were inoculated in an amount of 3 ml on 6-well culture plate, placed in an incubator with 37° C., 5% CO2 content, saturation humidity, and cultured for 24 h, added with different drug solutions (DM122) formulated with culture medium, and cell control was set. Cultivation was continuously performed in the incubator with 37° C., 5% CO2 content, saturation humidity for 24 h, a kit for RNA extraction was used to extract intracellular RNA from the cells, and one-step qRT-PCR was used to determine intracellular contents of Hsc70 and GAPDHRNA. After the cultivation of cells was performed for 48 h, the cells were digested and harvested, then the cells were split with CytoBuster™ Protein Extraction Buffer that contained many kinds of protease inhibitors, total intracellular proteins were extracted, and Western blotting was used to analyze the contents of Hsc70 and GAPDH proteins. In comparison with the cell control, the inhibition effects on Hsc70 upon action of different drugs were analyzed.

DHBV = DHBV animal test; format: in vivo, Peking ducks
Description: Infection and administration: Peking ducks (purchased from Institute of Animals, Chinese Academy of Medical Sciences) were infected via foot vein with 0.2 ml DHBV positive serum. […] The control group was administered with physiological saline (1 ml); positive control was administered with 3TC (lamivudine), in dose of 50 mg/kg (5 mg/ml, 1 ml).

2.2.15 cells = test: Drug TC50 by MTT detection; format: cell-based; conditions: Reed-Muench
Description: 2.2.15 cells (all cells were purchased from Vertex Pharmaceutical Co., USA) in exponential growth phase were inoculated on 96-well culture plate, 2×10^5 cells/well, added with culture media containing PFA diluted in different concentration rates, 3 wells for each diluted concentration, placed in 37° C. CO2—containing incubator and cultivated for 48 h; the supernatant was discarded, 100 μl of MTT (0.5 mg/ml) in culture medium was added, cultivation was continuously performed at 37° C. for 4 h; each well was added to 100 μl of 50% DMF-20% SDS destaining solution, stood at 37° C. overnight; ELISA was used to measure optical density at wavelength of 570 nm (0D570).
In each experiment, 3 cell control wells and 3 blank controls well were set, the results were used in formula, (cell control OD570-drug-medicated cell OD570)/cell control OD570, to calculate cell death rate (%), and Reed-Muench method was used to calculate half toxic concentration TC50.

SMILES: Nc1ccn([C@@H]2CS[C@H](CO)O2)c(=O)n1 [lamivudine, reference compound]
- inhibition rate on wild type HBV (wild type HBV): 64%
- inhibition rate on drug-resistant HBV [1]: 28%

SMILES: CCOC1CC(=O)N2CC3CCCN4CCCC(C34)C2C1 (stereo not drawn) [Compound 6b, 13-ethoxy matrine]
- oral LD50 ([2]; mice, oral administration once): greater than 1000 mg/kg
- death of mice ([2]; oral once, 250, 500 and 750 mg/kg): no mouse died
- change of bodyweight ([2]; oral once, 250, 500 and 750 mg/kg (FIG. 11A)): no significant change of bodyweight
- AST, ALT, BUN and CRE indexes in blood ([2]; oral, 750 mg/kg dose group (FIG. 11B)): no significant abnormality
- Hsc70 mRNA (Hsc70 [3]; down-regulation of liver cell Hsc70 gene): 74.1 ± 0.11
- anti-HCV activity (HCV nucleoprotein and Hsc70 protein levels) (HCV; HCV-infected Huh7.5 cells, 200 μg/mL, Western blotting (FIG. 7B)): significant activity on anti-HCV
- activity against HCV (HCV RNA level) (HCV; HCV-infected Huh7.5 cells, 200 μg/mL, real-time RT-PCR): best activity against HCV
- inhibition rate on wild type HBV (wild type HBV): 35%
- inhibition rate on drug-resistant HBV [1]: 32%

SMILES: COc1ccc(CN2CC3CCCN4CCCC(C2CCCC(=O)O)C34)cc1 (stereo not drawn) [DM-122, N-(4-methoxybenzyl) matrinic acid]
- Hsc70 protein content in virus particles in supernatant (Hsc70 [4]): reduced the Hsc70 protein content in virus particles
- Hsc70 down-regulation rate (%) (Hsc70 [5]; 200 ug/ml (upper data)): 36.8 ± 1.4%
- Hsc70 down-regulation rate (%) (Hsc70 [5]; 400 ug/ml (lower data)): —
- inhibition of intracellular Hsc70 mRNA (Hsc70 [5]; Huh7.5 cells, 24 h, qRT-PCR (FIG. 4)): dose-dependent inhibition effects
- inhibition of intracellular Hsc70 protein (Hsc70 [5]; Huh7.5 cells, 48 h, Western blotting (FIG. 5)): dose-dependent inhibition effects
- influence on body weight of mice ([2]; mouse, in vivo): no influence on body weight of mice
- influence on liver and kidney functions (GOT, GPT, BUN, CRE) ([2]; mouse, in vivo, ip): no influence on liver and kidney functions
- Hsc70 inhibition rate (down-regulation of Hsc70 expression activity, expressed in relative OMT ratio) (Hsc70 [3]; relative to OMT (= 1)): 1.56
- HCV inhibition rate (%) (HCV; 200 ug/ml (upper data)): 77.2 ± 4.8%
- HCV inhibition rate (%) (HCV; 400 ug/ml (lower data)): 88.0 ± 4.0%
- inhibition of intracellular HCV Core and Hsc70 proteins (HCV; HCV-infected Huh7.5 cells, 72 h, Western blotting (FIG. 7A)): dose-dependent inhibition effects
- effect on intracellular HCV RNA (HCV; HCV-infected Huh7.5 cells, 72 h, qRT-PCR (FIG. 6)): dose-dependent effects
- EC50 (half effective concentration) (HCV; virus not given, stands beside HCV inhibition rate): 252.35 µg/mL (≈ 653 µM)
- HBVDNA in liver, inhibition rate (DHBV; duckling, oral 37.5 mg/kg twice per day, 15 days (FIG. 1)): −5.14%
- activity against hepatitis B virus in DHBV-infected ducks (HBV DNA in liver and serum) (DHBV; oral 150, 75, 37.5 mg/kg twice per day, 15 days): good activity against hepatitis B virus
- CC50 (concentration to cause poisoning in half cells) (2.2.15 cells): >1000 µg/mL
